Consider two molecules from patent US20040185430A1, “Process for evaluating the cosmetic or dermatological activity of a product and use of plant material” (priority 2002, published 2004).

SMILES strings stand for the structures.

In experiment [1] the test system is Carrot. Description: Moisturizing effect, CM820 corneometer, carrot model. As to conditions: 4 mg/cm2 topical, T 2 hours vs T0, corrected for control region. The protocol:
(§1) Measurements were carried out at approximately 22° C. and a relative humidity ranging from 53% to 67%. Fruits and vegetables: 2 samples per product, measured at intervals of 24 hours. Application to regions of 4 cm^2. A control region on each sample. Application of the formulations at the rate of 4 mg/cm^2 (search for the direction of the action and not for the performance of the product). Moisturizing—Measurement with a CM820 corneometer of the mean value of 5 determinations. Measurements at: T0: reference value before application of the formulations. T 2 hours for the active principles (single measurement after observation of appearance of cuts on the leaves brought about by the measuring pressure of the corneometer). T 1 hour and T 4 hours for the commercial formulations. The values are the mean of the measurements at Ti divided by those at TO corrected for the variations in the control regions.

In experiment [2] the test system is Potato, BF15. Put plainly: Moisturizing effect, CM820 corneometer, potato model. The conditions noted are these: 4 mg/cm2 topical, T 2 hours vs T0, corrected for control region. As for the experimental part:
as §1

Experiment [3] has as its system Apples, Golden Delicious. Put plainly: Moisturizing effect, CM820 corneometer, apple model. As to conditions: 4 mg/cm2 topical, T 2 hours vs T0, corrected for control region. The protocol: as §1
The subject of experiment [4] is Ficus. Description: Moisturizing effect, CM820 corneometer, Ficus leaves. As to conditions: Ficus leaf; 4 mg/cm2 topical; T 2 hours vs T0, corrected for control. The protocol: as §1, with “Plants:” for “Fruits and vegetables:”, “Application” for “Application to regions”, “the formulations over the whole of the vernicose (upper) surface. One leaf per formulation+one” for “4 cm^2. A”, “leaf. […]” for “region on each sample.”

Experiment [5] has as its system Syngonium. Description: Moisturizing effect, CM820 corneometer, Syngonium leaves. As to conditions: Syngonium leaf; 4 mg/cm2 topical; T 2 hours vs T0, corrected for control. The protocol:
as §1, with “Plants:” for “Fruits and vegetables:”, “Application” for “Application to regions”, “the formulations over the whole of the vernicose (upper) surface. One leaf per formulation+one” for “4 cm^2. A”, “leaf. […]” for “region on each sample.”

Experiment [6] deals with Spatyphillum. Put plainly: Moisturizing effect, CM820 corneometer, Spatyphillum leaves. The conditions noted are these: Spatyphillum leaf; 4 mg/cm2 topical; T 2 hours vs T0, corrected for control. As for the experimental part:
as §1, with “Plants:” for “Fruits and vegetables:”, “Application” for “Application to regions”, “the formulations over the whole of the vernicose (upper) surface. One leaf per formulation+one” for “4 cm^2. A”, “leaf. […]” for “region on each sample.”

Experiment [7] concerns Man. Description: Moisturizing effect, CM820 corneometer, human model (inner forearm). It is filed as in vivo. As to conditions: 4 mg/cm2 topical, T 2 hours vs T0, corrected for control region. The protocol:
2) To measure the moisturizing and the barrier effects, the human models (2 male volunteers and 2 female volunteers) took part in the tests and measurements under environmental conditions which were also controlled. Measurements were carried out at approximately 22° C. and a relative humidity ranging from 53% to 67%. Human beings: 4 models per product. Application to an inner region of the arm. Three regions of measurements, including a control, on the inner part of each forearm were conducted. The models were kept calm under climate-controlled measuring conditions for 15 minutes before each series of measurements. Application of each formulation over an area of 16 cm^2. Application of the formulations at the rate of 4 mg/cm^2 (search for the direction of the action and not for the performance of the product). Moisturizing—Measurement with a CM820 corneometer of the mean value of 5 determinations. Measurements at: T0: reference value before application of the formulations. T 2 hours for the active principles (single measurement after observation of appearance of cuts on the leaves brought about by the measuring pressure of the corneometer). T 1 hour and T 4 hours for the commercial formulations. The values are the mean of the measurements at Ti divided by those at TO corrected for the variations in the control regions.

The subject of experiment [8] is Carrot. Put plainly: Barrier effect, insensible water loss (IWL), Dermalab, carrot model. The conditions noted are these: 4 mg/cm2 topical, T 2 hours vs T0, corrected for control region. As for the experimental part:
(§2) Measurements were carried out at approximately 22° C. and a relative humidity ranging from 53% to 67%. Fruits and vegetables: 2 samples per product, measured at intervals of 24 hours. Application to regions of 4 cm^2. A control region on each sample. Application of the formulations at the rate of 4 mg/cm^2 (search for the direction of the action and not for the performance of the product). The plant and human models and the products tested were the same as in Example 1. The IWL (insensible water loss) measurements were carried out according to the same protocol as above. IWL: Measurement with a Dermalab (vertical probe in contact with the measurement region, under minimum pressure). For the plants, a glass sheet was placed under the measurement region. 2 series of consecutive measurements of 25 values were conducted. The values are the mean of the measurements at Ti divided by those at T0 corrected for the variations in the control regions.

The subject of experiment [9] is Potato, BF15. Put plainly: Barrier effect, insensible water loss (IWL), Dermalab, potato model. As to conditions: 4 mg/cm2 topical, T 2 hours vs T0, corrected for control region. The protocol:
as §2

The test system of experiment [10] is Ficus. Put plainly: Barrier effect, insensible water loss (IWL), Dermalab, Ficus leaves. As to conditions: Ficus leaf; 4 mg/cm2 topical; T 2 hours vs T0, corrected for control. The protocol: as §2, with “Plants:” for “Fruits and vegetables:”, “Application” for “Application to regions”, “the formulations over the whole of the vernicose (upper) surface. One leaf per formulation+one” for “4 cm^2. A”, “leaf. […]” for “region on each sample.”

In experiment [11] the test system is Syngonium. Description: Barrier effect, insensible water loss (IWL), Dermalab, Syngonium leaves. The conditions noted are these: Syngonium leaf; 4 mg/cm2 topical; T 2 hours vs T0, corrected for control. The protocol:
as §2, with “Plants:” for “Fruits and vegetables:”, “Application” for “Application to regions”, “the formulations over the whole of the vernicose (upper) surface. One leaf per formulation+one” for “4 cm^2. A”, “leaf. […]” for “region on each sample.”

Experiment [12] has as its system Spatyphillum. Put plainly: Barrier effect, insensible water loss (IWL), Dermalab, Spatyphillum leaves. As to conditions: Spatyphillum leaf; 4 mg/cm2 topical; T 2 hours vs T0, corrected for control. As for the experimental part: as §2, with “Plants:” for “Fruits and vegetables:”, “Application” for “Application to regions”, “the formulations over the whole of the vernicose (upper) surface. One leaf per formulation+one” for “4 cm^2. A”, “leaf. […]” for “region on each sample.”

For experiment [13], the system named is Man. Put plainly: Barrier effect, insensible water loss (IWL), Dermalab, human model (inner forearm). In kind it is in vivo. As to conditions: 4 mg/cm2 topical, T 2 hours vs T0, corrected for control region. The protocol:
2) To measure the moisturizing and the barrier effects, the human models (2 male volunteers and 2 female volunteers) took part in the tests and measurements under environmental conditions which were also controlled. Measurements were carried out at approximately 22° C. and a relative humidity ranging from 53% to 67%. Human beings: 4 models per product. Application to an inner region of the arm. Three regions of measurements, including a control, on the inner part of each forearm were conducted. The models were kept calm under climate-controlled measuring conditions for 15 minutes before each series of measurements. Application of each formulation over an area of 16 cm^2. Application of the formulations at the rate of 4 mg/cm^2 (search for the direction of the action and not for the performance of the product). The plant and human models and the products tested were the same as in Example 1. The IWL (insensible water loss) measurements were carried out according to the same protocol as above. IWL: Measurement with a Dermalab (vertical probe in contact with the measurement region, under minimum pressure). For the plants, a glass sheet was placed under the measurement region. 2 series of consecutive measurements of 25 values were conducted. The values are the mean of the measurements at Ti divided by those at T0 corrected for the variations in the control regions.

Experiment [14] deals with Apples, Golden Delicious. Description: Barrier effect, insensible water loss (IWL), Dermalab, apple model. As to conditions: 4 mg/cm2 topical, T 2 hours vs T0, corrected for control region. As for the experimental part:
as §2

On to `OCC(O)CO` [Glycerol], for which the “Variation T 2 hours/T0 Corneo” value in [1] came to 62%; in experiment [2] it was 69%; in experiment [3], 16%; in [4], 47%; in [5] it was 38%; in [6], 52%. Moreover, the “Variation T 2 hours/T0 Corneo” value in [7] is reported as 22%. Further, the “Variation T 2 hours/T0 IWL” value came out at 1% in experiment [8]; 188% in experiment [9]; 183% in experiment [10]; 40% in experiment [11]; 14% in experiment [12]; 55% in [13].

For the molecule `CCCCCCCCCCCCOP(=O)(O)O` [Surfactant, Lauryl phosphate], the “Variation T 2 hours/T0 Corneo” value in experiment [1] is 271%; in experiment [2] it was 1144%; in experiment [3] it was 2%; in experiment [4], 20%; in experiment [5], 48%; in experiment [6], 30%. The “Variation T 2 hours/T0 Corneo” value in experiment [7] is given as 5%. Also, the “Variation T 2 hours/T0 IWL” value in experiment [8] is 2%; in [9], 48%; in experiment [14] it was 0%; in [11], 104%; in [12] it was 13%; in experiment [13] it was 19%.
